From patent US20180160679A1, “PROCESS FOR TREATING PERENNIAL PLANT WOOD DISEASES” (priority 2015, published 2018)

How the values were obtained:
[1] = test system: Neonectria galligena (Cylindrocarpon heteronema); assay: Growth inhibition by laser nephelometry in 96-well microplates; assay type: cell-based; details: for IC50 / IC90: growth, nephelometry for 60 h
Procedure: (§1) For multicellular organisms such as fungi, the nephelometry method is used on sporulating strains (Joubert et al., Laser nephelometry applied in an automated microplate system to study filamentous fungus growth, Biotechniques 48: 399-404, 2010).
(§2) The strains are multiplied on suitable agar media in an oven at 20° C., for 8 days before their use, so as to be in their exponential growth phase. The fungal suspension is prepared extemporaneously at a concentration of […] for Pc and […] for Ch.
(§3) 100 μl of the suspension is used for the tests.
(§4) The tests are carried out in 96-well microplates. Doses of 0 ppm, 0.1 ppm, 0.3 ppm, 1 ppm, 3 ppm, 10 ppm, 30 ppm, 100 ppm, 300 ppm, 1000 ppm and 3000 ppm (final concentration of the substance) will be tested per product.
(§5) Three technical repetitions are carried out per modality (target species/formulation).
(§6) Controls are added per target pathogenic agent: one positive growth control and the products alone at the highest doses.
(§7) Nephelometry measurements (RNU) are carried out for 60 h, every 30 minutes and the growth values are measured to study the growth inhibition effect relative to the fungal controls.

[2] = test system: Phytophthora cactorum; assay: as above; assay type: cell-based; details: nephelometry for 60 h
Procedure: as §1, §2, §3, §4, §5, §6, §7

[3] = test system: Diplodia seriata (F98-01); assay: Germination of the spores on malt-agar medium with fungicide; assay type: cell-based; details: at the concentrations tested (0.0005 to 500 mg/L)
Procedure: (§8) Formulation 3 was used in this experiment and was compared with two formulations 5 and 6, devoid of one of the two active ingredients but of identical composition (the quantity of active ingredient omitted is replaced with water).
(§9) The fungi on which formulations 3, 5 and 6 were tested are Phaemoniella chlamydospora (81pep), Phaeoacremonium aleophilum (LR 23), Diplodia seriata (F98-01), Neofusicoccum parvum (NpSV) and Eutypa lata.
(§10) The fungi are transferred to a malt-agar medium (15 g of malt and 20 g of agar per litre of deionized water, sterilized at 120° C. for 20 minutes) in a Petri dish for multiplication.
The conidia of Diplodia seriata are obtained from pycnidia that have developed in less than three weeks of culture on the malt-agar medium. The pycnidia are taken from and cultured in sterile water in such a way that they release the conidia.
(§11) The culture medium is a malt-agar medium (15 g of malt and 20 g of agar per litre of deionized water, sterilized at 120° C. for 20 minutes). […]
(§12) The percentage germination of the spores is evaluated relative to a control placed under the same conditions. […]
(§13) For each Petri dish, 200 spores are counted and the percentage of spores germinated is calculated.
(§14) For each concentration of fungicide, the percentage efficacy of the active ingredient is determined by the following equation: […]

[4] = test system: Phaeomoniella chlamydospora; assay: Mycelial growth on malt-agar medium with fungicide (Example 6); assay type: cell-based
Procedure: (§15) The culture medium is a malt-agar medium (15 g of malt and 20 g of agar per litre of deionized water, sterilized at 120° C. for 20 minutes).
(§16) The medium containing the fungicides is prepared by diluting the formulation under investigation in deionized water, which is added to the culture medium. The mixture is then homogenized and distributed in Petri dishes with a diameter of 90 mm.
(§17) Discs with a diameter of 6 mm, cut out with a punch, are placed in each dish in sterile conditions. Three repetitions are carried out for each test. The Petri dishes are incubated at 25° C. for a time necessary for the fungus to develop as far as 1 or 2 cm from the edges of a Petri dish.
(§18) The percentage mycelial growth is evaluated relative to a control placed under the same conditions for each concentration of fungicide, by the following equation: […]
(§19) The value of the concentration of the active ingredients required for inhibiting mycelial growth at 50% (IC50) or at 90% (IC90) is calculated from the regression straight line of the percentage efficacy as a function of the logarithm of the concentration of the fungicide.
(§20) The value of the concentration of the fungicide that is lethal for the fungus is obtained according to the following methodology; the mycelial implants that have not developed on the culture medium with fungicide are transferred to a malt-agar culture medium, without fungicide. The Petri dishes are then incubated at ambient temperature. Failure of the mycelial implant to take is noted. […]
(§21) The efficacy of tetraconazole, cyproconazole alone or in combination with chlorothalonil or metiram zinc on mycelial growth was evaluated under the same conditions as in Example 4.
(§22) The efficacy of tebuconazole in combination with another […] antifungal, metiram zinc, was also evaluated.

[5] = test system: Phaeocremonium aleophilum; assay: as above; assay type: cell-based
Procedure: as §15, §16, §17, §18, §19, §20, §21, §22

[6] = test system: Phaeoacremonium aleophilum (LR 23); assay: Germination of the spores on malt-agar medium with fungicide; assay type: cell-based; details: for inhibition of germination of the spores: at the concentrations tested (0.0005 to 500 mg/L)
Procedure: as §8, §9, §10
(§23) The conidia of Phaemoniella chlamydospora and Phaeoacremonium aleophilum are obtained from cultures of these fungi. The conidia are obtained by rinsing the colony of fungi with a few millilitres of sterile deionized water.
(§24) The suspension of conidia in deionized water is then adjusted to 100-200 conidia per μl.
as §15, §16
(§25) The final concentrations of each active ingredient in the medium are as follows: 0.0005, 0.005, 0.05, 0.5, 5, 50 and 500 mg/L.
(§26) 100 μl of a previously homogenized suspension of spores is deposited and spread over the surface of the culture medium.
(§27) Two repetitions are carried out for each test.
(§28) The percentage germination of the spores is evaluated relative to a control placed under the same conditions.
(§29) Two Petri dishes are incubated at 25° C. for a time required for the spores of the control dish to have germinated between 90 and 100%.
as §13, §14

[7] = test system: Phaemoniella chlamydospora (81pep); assay: as above; assay type: cell-based; details: at 0.05 mg/1
Procedure: as §8, §9, §10, §23, §24, §15, §16, §25, §26, §27, §28, §29, §13, §14

[8] = test system: Eutypa lata; assay: as above; assay type: cell-based
Procedure: as §8, §9, §10
The ascospores of Eutypa lata are obtained from perithecia situated on vine plants that have died from Eutypiosis. The perithecia are decapitated superficially, isolated one by one and soaked in sterile water for approximately 2 hours. The concentration of ascospores is then adjusted to 100-200 conidia per μl.
as §11, §12, §13, §14

[9] = test system: Neofusicoccum parvum (NpSV); assay: Mycelial growth on malt-agar medium with fungicide; assay type: cell-based; details: for activity on mycelial growth / concentration at which mycelial growth is inhibited completely: Example 6
Procedure: (§30) Formulation 3 was used in this experiment and was compared with two formulations 5 and 6, is devoid of one of the two active ingredients but of identical composition (the quantity of active ingredient omitted is replaced with water).
(§31) The fungi on which formulations 3, 5 and 6 were tested are Diplodia seriata (F98-01), Neofusicoccum parvum (NpSV), Eutypa lata (St309) and Formitiporia mediterranea (F2010-1).
as §15, §16, §25, §17, §18, §19
(§32) The value of the concentration of the fungicide that is lethal for the fungus is obtained according to the following methodology; the mycelial implants that have not developed on the culture medium with fungicide are transferred to a malt-agar culture medium, without fungicide. The Petri dishes are then incubated at ambient temperature. Failure of the mycelial implant to take is noted.
(§33) The interactions between the fungicides in composition 3 are investigated by Wadley's method. IC50 and IC90 can be determined for each fungicide and for the fungicide combination from the curves plotted for each active ingredient used alone or for the combination.
(§34) IC90 and the theoretical IC90 for the combination is then calculated using the following equation:
(§35) The type and the level of the interaction F are then calculated by dividing the theoretical IC value by the experimental IC observed for the combination of fungicides (F=theoretical IC/experimental IC).
(§36) The interactions are defined thus: • Additivity: F=1, • Synergy: F>1, • Antagonism: F<1.
as §21, §22

[10] = test system: Eutypa lata (St309); assay: Mycelial growth on malt-agar medium with fungicide; assay type: cell-based
Procedure: as §30, §31, §15, §16, §25, §17, §18, §19, §32, §33, §34, §35, §36, §21, §22

[11] = test system: Diplodia seriata (F98-01); assay: Mycelial growth on malt-agar medium with fungicide; assay type: cell-based; details: for activity on mycelial growth / concentration at which mycelial growth is inhibited completely: Example 6
Procedure: as §30, §31, §15, §16, §25, §17, §18, §19, §32, §33, §34, §35, §36, §21, §22

[12] = test system: Formitiporia mediterranea (F2010-1); assay: Mycelial growth on malt-agar medium with fungicide; assay type: cell-based, Fomitoporia mediterranea; details: for fungicide (lethal) activity: at the concentrations tested; for concentration at which mycelial growth is inhibited completely: Example 6
Procedure: as §30, §31, §15, §16, §25, §17, §18, §19, §32, §33, §34, §35, §36, §21, §22

[13] = test system: Neofusicoccum parvum (NpSV); assay: Germination of the spores on malt-agar medium with fungicide; assay type: cell-based
Procedure: as §8, §9, §10
The conidia of Neofusicoccum parvum are obtained from pycnidia that have developed on fragments of grapevines shoots.
as §15
The medium containing the fungicides is prepared by diluting the formulation under investigation in deionized water, which is added to the culture medium. […]
as §12, §13, §14

[14] = Example 5, at the concentrations tested

| Compound | lethal dose [1] [ppm] | IC50 [1] | IC90 [1] | 50% inhibitory concentration (IC50) [2] | 90% inhibitory concentration (IC90) [2] [ppm] | concentration at which mycelial growth is inhibited completely [4] [mg/L] | concentration at which mycelial growth is inhibited completely [5] [mg/L] | inhibition of germination of the spores [6] | inhibition of germination of the spores [7] | concentration that inhibits germination of the spores [8] [mg/1] | activity on mycelial growth [9] | activity on mycelial growth ([10]; Example 6) | activity on mycelial growth [11] | fungicide (lethal) activity [12] | concentration at which the substance is fungicidal [4] [mg/L] | concentration at which the substance is fungicidal (lethal dose) [5] [mg/L] | concentration at which mycelial growth is inhibited completely [9] [mg/L] | concentration from which mycelial growth is inhibited completely ([10]; Example 6) [mg/L] | lethal dose ([10]; Example 6) [mg/L] | concentration at which mycelial growth is inhibited completely [12] [mg/L] | other results |
| --- | --- | --- | --- | --- | --- | --- | --- | --- | --- | --- | --- | --- | --- | --- | --- | --- | --- | --- | --- | --- | --- |
| N#Cc1c(Cl)c(Cl)c(Cl)c(C#N)c1Cl [chlorothalonil] | ≥ 300 | approximately 100 ppm | around 250 ppm | below 10 ppm | 1000 | 500 | 500 | does not inhibit germination of the spores | does not inhibit germination of the spores | 5 | moderate activity | do not inhibit the mycelial growth of Eutypa lata completely | low activity | does not display fungicide activity |  |  |  |  |  |  | inhibition of germination of the spores [3]: does not inhibit germination of the spores; concentration at which mycelial development is strongly inhibited ([9]; Example 5): 500 mg/L; fungicide (lethal) activity [9, 14]: does not display fungicide activity; concentration from which mycelial development is strongly inhibited ([10]; Example 5): ≥ 50 mg/L; fungicide (lethal) activity ([10]; Example 5, at the concentrations tested (0.0005 to 500 mg/L)): does not display fungicide activity; activity on mycelial growth ([10]; Example 6, listed as Chlorothalonil): low activity; concentration from which mycelial development is strongly inhibited ([11]; Example 5): ≥ 500 mg/L; fungicide (lethal) activity [11, 14]: does not display fungicide activity; concentration from which mycelial development is strongly inhibited ([12]; Example 5): ≥ 5 mg/L; concentration from which germination of the spores is inhibited [13]: ≥ 5 mg/L |
| CC(C1CC1)C(O)(Cn1cncn1)c1ccc(Cl)cc1 (centres unmarked) [cyproconazole] |  |  |  |  |  | 50 | 50 |  |  |  |  |  | low activity | fungicidal | 100 | 100 | 500 | ≥ 1 | 10 | 500 |  |
| CC(C)(C)C(O)(CCc1ccc(Cl)cc1)Cn1cncn1 (centres unmarked) [tebuconazole] | 1000 | around 230 ppm | around 800 ppm | around 200 ppm | < 1000 | 50 | 50 | does not prevent germination of the spores | inhibit germination of the spores completely | 50 |  |  |  | None of the concentrations tested is lethal | 100 | 100 |  |  |  |  | concentration from which elongation of the spores is inhibited [6]: ≥ 5 mg/L; concentration from which mycelial growth is inhibited completely ([9]; Example 5): ≥ 0.5 mg/L; lethal concentration ([9]; Example 5): 500 mg/L; IC50 ([9]; Neofusicoccum parvum, Example 5, mycelial growth, unit not given (concentrations tested in mg/L)): 13 ng/mL; concentration from which mycelial growth is inhibited completely ([10]; Example 5): ≥ 0.5 mg/L; lethal concentration ([10]; Example 5, implants transferred to medium without fungicide): 500 mg/L; IC50 ([11]; Diplodia seriata, Example 5, mycelial growth, unit not given (concentrations tested in mg/L)): 6 ng/mL; concentration from which mycelial growth is inhibited completely ([11]; Example 5): ≥ 50 mg/L; lethal concentration ([11]; Example 5): 500 mg/L; concentration from which mycelial growth is inhibited completely ([12]; Example 5): ≥ 0.5 mg/L; IC50 ([12]; Example 5, mycelial growth, unit not given (concentrations tested in mg/L)): 3 ng/mL; inhibition of germination of the spores ([13]; at the concentration tested): does not inhibit germination of the spores |
| FC(F)C(F)(F)OCC(Cn1cncn1)c1ccc(Cl)cc1Cl (centres unmarked) [tetraconazole] |  |  |  |  |  | 50 | 50 |  |  |  |  |  |  | fungicidal | 100 | 100 | 500 | ≥ 5 | 50 | 10 | concentration at which mycelial growth is inhibited completely [11]: 500 mg/L |
| metiram zinc |  |  |  |  |  | 100 | 100 |  |  |  | moderate activity | low activity |  | fungicidal |  |  |  |  |  | 500 | activity on mycelial growth ([10]; Example 6, listed as Metiram zinc): do not inhibit the mycelial growth of Eutypa lata completely; concentration at which mycelial growth is inhibited completely [11]: 500 mg/L |
